Measured values as given in ChEMBL document CHEMBL1153128, “Synthesis of a hydrolytically stable, fluorescent-labeled ATP analog as a tool for probing adenylyl cyclases” (Bioorg Med Chem Lett, 2010).

Target: T1, Calmodulin-sensitive adenylate cyclase (Bacillus anthracis, UniProt P40136)
T1 sequence (P40136 whole entry): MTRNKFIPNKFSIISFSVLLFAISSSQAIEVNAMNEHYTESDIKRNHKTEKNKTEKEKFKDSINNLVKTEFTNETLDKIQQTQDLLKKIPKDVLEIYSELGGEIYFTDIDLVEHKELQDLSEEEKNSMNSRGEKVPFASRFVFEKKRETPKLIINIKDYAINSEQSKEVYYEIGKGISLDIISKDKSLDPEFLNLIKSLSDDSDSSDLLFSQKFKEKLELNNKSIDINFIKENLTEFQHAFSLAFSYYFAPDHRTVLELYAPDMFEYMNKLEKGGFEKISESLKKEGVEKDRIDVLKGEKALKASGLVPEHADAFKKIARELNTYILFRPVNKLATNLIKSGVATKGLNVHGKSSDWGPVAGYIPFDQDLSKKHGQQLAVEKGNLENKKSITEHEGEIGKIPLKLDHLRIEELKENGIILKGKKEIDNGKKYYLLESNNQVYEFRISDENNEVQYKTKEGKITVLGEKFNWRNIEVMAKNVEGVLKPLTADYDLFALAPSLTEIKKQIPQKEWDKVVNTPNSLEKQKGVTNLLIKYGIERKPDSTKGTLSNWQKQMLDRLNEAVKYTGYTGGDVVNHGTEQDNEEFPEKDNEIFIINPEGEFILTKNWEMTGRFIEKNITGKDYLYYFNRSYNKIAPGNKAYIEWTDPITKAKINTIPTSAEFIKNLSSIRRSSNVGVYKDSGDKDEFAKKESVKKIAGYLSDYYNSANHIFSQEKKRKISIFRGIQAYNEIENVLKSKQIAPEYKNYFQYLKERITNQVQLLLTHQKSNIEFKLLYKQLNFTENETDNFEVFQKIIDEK
Test: Inhibition of Bacillus anthracis edema factor catalytic domain by radiometric assay

Q: Which Ki does the source give for `CNc1ccccc1C(=O)O[C@H]1[C@@H](O)[C@H](n2cnc3c(N)ncnc32)O[C@@H]1CO[P@@](=O)(O)O[P@](=O)(O)OP(=O)(O)O` here?
A: 980 nM

Q: With `CNc1ccccc1C(=O)O[C@@H]1[C@H](O)[C@@H](COP(=O)(O)OP(=O)(O)OP(=O)(O)O)O[C@H]1n1ccc(N)nc1=O` as the compound, how does the Ki read?
A: 100 nM

Q: `CNc1ccccc1C(=O)N[C@@H]1[C@H](O)[C@@H](COP(=O)(O)OP(=O)(O)C(Cl)(Cl)P(=O)(O)O)O[C@H]1n1cnc2c(N)ncnc21` was tested. Which Ki did it give?
A: 8980 nM
